Assay results as given in PMC10056986 (Pharmaceuticals, 2023).

What was measured:
CCKa = target: T1, CCKa (Homo sapiens, UniProt P32238); assay: cell-based
T1 sequence (P32238 1-428): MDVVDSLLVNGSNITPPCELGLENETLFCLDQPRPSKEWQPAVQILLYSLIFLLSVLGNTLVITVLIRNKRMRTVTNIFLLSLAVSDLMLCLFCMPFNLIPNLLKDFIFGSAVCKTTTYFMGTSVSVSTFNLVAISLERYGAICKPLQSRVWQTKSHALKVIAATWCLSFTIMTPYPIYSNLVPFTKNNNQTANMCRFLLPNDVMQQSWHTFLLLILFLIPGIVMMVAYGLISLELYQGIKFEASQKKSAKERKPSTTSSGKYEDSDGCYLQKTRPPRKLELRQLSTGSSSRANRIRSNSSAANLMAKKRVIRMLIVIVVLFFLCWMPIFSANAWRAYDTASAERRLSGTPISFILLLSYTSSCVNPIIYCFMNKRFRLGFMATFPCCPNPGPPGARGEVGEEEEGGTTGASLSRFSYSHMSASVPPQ

[1] = system: Influenza virus A/California/07/2009 (H1N1)pdm09; assay: microbe, parasite or virus in culture; type: cell-based; conditions: H1N1, MDCK, read-out: EC50 (mean ± SD)
in vivo [2] = conditions: both, SD, rat; for AUC(0-t): AUC0-last
Influenza virus B/Lee/40 = assay: microbe, parasite or virus in culture; type: cell-based; conditions: MDCK, read-out: EC50 (mean ± SD)
H1 = H1 (Homo sapiens, UniProt P35367); assay: cell-based
TAOK2 = TAOK2 (Homo sapiens, UniProt Q9UL54); assay: biochemical
Beta2 = Beta2 (Homo sapiens, UniProt P07550); assay: cell-based
CHK1 = CHK1 (Homo sapiens, UniProt O14757); assay: biochemical
op-mu = op-mu (Homo sapiens, UniProt P35372); assay: cell-based
HPIV-3 C243 = assay: microbe, parasite or virus in culture; type: cell-based, human parainfluenza virus type 3; conditions: Human respirovirus 3, LLC-MK2, read-out: EC50 for Virus
hERG potassium channel [3] = target: T2, hERG potassium channel (Homo sapiens, UniProt Q12809); assay: cell-based
[4] = system: influenza A virus WSN/33 (H1N1); parameters: species or system BALB/c mice; conditions: mouse, in vivo
Beta1 = Beta1 (Homo sapiens, UniProt P08588); assay: cell-based
in vitro [5] = conditions: human
MINK = MINK (Homo sapiens, UniProt Q8N4C8); assay: biochemical
in vitro [6] = conditions: human; remark: listed apart in the source
A/Anhui/01/2013 (H7N9) = assay: microbe, parasite or virus in culture; type: cell-based, avian influenza virus; conditions: Influenza A virus, H7N9, MDCK, read-out: IC50 (mean ± SD)
hERG potassium channel [7] = target: T2, hERG potassium channel; assay: in vitro
EPHA2 = EPHA2 (Homo sapiens, UniProt P29317); assay: biochemical
AD2 = type: cell-based, human
SRC = SRC (Homo sapiens, UniProt P12931); assay: biochemical
in vivo [8] = conditions: both, beagle, dog
in vitro [9] = conditions: African green monkey
CB2 = CB2 (Homo sapiens, UniProt P34972); assay: cell-based
[10] = system: Influenza virus A/WSN/33 (H1N1); assay: microbe, parasite or virus in culture; type: cell-based; conditions: MDCK, read-out: EC50 (mean ± SD)
TNIK = TNIK (Homo sapiens, UniProt Q9UKE5); assay: biochemical
D1 = D1 (Homo sapiens, UniProt P21728); assay: cell-based
DYRK3 = DYRK3 (Homo sapiens, UniProt O43781); assay: biochemical
in vitro [11] = conditions: rhesus monkey
H2 = H2 (Homo sapiens, UniProt P25021); assay: cell-based
[12] = 10,000 nM, read-out: Inhibition at Maximum Concentration (%)

Sequence of Beta2 (P07550 whole entry): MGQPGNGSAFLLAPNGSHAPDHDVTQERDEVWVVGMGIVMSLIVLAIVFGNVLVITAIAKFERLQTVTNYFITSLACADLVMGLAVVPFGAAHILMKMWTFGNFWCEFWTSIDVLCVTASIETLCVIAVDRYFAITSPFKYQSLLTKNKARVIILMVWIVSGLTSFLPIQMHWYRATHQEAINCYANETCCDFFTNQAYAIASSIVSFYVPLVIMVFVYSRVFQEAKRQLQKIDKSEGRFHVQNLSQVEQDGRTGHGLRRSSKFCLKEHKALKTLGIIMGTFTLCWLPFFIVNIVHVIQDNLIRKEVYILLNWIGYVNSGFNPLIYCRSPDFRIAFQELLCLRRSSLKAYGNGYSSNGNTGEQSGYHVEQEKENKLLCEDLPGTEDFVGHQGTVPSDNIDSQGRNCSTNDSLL
Sequence of H1 (P35367 whole entry): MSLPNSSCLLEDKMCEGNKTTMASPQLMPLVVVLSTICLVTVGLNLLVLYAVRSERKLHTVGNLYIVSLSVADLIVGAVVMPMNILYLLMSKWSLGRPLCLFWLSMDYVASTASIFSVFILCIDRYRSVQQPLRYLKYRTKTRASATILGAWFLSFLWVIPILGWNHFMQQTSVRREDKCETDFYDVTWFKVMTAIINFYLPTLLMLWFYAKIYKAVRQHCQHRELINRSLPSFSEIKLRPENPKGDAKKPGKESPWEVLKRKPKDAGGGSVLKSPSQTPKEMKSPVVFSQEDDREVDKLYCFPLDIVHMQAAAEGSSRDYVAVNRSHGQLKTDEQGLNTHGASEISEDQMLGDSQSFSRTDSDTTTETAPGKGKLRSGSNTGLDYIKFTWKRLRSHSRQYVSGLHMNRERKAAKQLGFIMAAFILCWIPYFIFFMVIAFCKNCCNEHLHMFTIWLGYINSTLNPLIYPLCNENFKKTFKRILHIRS
Sequence of op-mu (P35372 whole entry): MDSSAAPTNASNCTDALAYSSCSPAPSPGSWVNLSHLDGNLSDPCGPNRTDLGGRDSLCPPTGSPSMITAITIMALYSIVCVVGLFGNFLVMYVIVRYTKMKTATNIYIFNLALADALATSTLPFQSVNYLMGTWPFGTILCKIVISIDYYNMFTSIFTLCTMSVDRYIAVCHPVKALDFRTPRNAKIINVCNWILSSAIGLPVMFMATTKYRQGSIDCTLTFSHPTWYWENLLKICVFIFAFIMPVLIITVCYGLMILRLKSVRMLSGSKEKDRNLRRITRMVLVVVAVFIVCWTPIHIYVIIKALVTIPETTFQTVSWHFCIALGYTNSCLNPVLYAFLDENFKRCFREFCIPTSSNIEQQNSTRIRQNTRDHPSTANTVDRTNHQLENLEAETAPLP
Sequence of H2 (P25021 whole entry): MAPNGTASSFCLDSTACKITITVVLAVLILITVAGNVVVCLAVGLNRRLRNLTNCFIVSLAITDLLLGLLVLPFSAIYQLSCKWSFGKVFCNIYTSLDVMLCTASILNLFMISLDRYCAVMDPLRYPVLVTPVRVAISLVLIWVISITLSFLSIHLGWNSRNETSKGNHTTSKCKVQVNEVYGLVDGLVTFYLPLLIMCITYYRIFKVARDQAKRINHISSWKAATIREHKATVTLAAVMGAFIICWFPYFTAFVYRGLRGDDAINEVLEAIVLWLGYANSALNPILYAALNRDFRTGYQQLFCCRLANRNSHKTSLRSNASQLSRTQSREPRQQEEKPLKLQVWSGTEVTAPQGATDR
T2 sequence (Q12809 whole entry): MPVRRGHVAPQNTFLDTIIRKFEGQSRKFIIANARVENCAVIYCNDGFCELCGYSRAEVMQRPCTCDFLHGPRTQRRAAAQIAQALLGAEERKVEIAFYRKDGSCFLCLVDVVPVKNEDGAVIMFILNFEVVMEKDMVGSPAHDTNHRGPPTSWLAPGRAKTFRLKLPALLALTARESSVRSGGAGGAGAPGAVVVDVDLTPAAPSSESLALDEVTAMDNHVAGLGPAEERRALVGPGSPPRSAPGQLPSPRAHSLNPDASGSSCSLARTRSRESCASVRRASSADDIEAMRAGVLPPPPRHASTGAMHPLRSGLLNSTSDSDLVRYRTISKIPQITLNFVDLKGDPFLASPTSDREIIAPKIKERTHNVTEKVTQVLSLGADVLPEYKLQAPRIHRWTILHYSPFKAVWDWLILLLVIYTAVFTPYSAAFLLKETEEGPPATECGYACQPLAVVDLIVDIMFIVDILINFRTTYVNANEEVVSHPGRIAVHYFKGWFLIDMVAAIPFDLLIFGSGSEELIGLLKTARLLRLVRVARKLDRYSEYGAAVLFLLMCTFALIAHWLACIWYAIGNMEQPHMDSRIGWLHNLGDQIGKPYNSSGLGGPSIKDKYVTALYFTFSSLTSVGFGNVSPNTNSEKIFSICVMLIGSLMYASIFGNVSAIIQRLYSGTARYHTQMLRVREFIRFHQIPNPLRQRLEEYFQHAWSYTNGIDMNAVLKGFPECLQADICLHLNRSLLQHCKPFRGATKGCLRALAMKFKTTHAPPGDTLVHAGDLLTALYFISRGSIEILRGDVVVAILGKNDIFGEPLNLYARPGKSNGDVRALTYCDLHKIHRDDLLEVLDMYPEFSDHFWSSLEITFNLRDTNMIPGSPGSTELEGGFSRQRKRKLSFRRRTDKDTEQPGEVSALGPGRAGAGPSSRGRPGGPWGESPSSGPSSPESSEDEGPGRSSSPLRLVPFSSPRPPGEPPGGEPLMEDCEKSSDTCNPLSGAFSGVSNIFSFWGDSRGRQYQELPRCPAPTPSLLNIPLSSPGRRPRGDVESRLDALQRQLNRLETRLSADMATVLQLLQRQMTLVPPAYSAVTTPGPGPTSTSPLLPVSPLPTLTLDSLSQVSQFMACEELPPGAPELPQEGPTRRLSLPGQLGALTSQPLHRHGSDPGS
Sequence of Beta1 (P08588 whole entry): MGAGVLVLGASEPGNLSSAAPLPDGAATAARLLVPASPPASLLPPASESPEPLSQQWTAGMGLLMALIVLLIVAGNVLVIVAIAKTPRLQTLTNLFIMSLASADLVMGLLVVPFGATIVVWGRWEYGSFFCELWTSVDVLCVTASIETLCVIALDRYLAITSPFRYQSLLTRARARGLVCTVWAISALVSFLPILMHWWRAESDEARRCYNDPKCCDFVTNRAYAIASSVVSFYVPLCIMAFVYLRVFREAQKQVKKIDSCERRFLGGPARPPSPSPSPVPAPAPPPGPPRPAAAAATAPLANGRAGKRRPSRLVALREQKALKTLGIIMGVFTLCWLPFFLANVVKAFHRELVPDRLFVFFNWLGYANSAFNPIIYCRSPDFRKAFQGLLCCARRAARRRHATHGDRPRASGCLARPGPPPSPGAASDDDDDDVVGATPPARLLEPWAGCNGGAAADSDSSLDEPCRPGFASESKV
Sequence of CB2 (P34972 whole entry): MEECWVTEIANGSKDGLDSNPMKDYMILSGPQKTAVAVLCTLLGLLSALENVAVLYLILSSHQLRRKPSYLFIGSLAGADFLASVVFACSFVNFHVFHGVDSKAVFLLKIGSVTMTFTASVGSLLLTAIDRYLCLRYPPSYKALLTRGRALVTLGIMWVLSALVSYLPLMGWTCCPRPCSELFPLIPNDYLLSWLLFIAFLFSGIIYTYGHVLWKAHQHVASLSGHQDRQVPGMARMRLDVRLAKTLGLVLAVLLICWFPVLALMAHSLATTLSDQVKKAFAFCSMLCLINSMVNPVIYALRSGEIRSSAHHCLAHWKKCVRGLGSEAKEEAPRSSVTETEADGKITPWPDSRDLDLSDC
Sequence of D1 (P21728 whole entry): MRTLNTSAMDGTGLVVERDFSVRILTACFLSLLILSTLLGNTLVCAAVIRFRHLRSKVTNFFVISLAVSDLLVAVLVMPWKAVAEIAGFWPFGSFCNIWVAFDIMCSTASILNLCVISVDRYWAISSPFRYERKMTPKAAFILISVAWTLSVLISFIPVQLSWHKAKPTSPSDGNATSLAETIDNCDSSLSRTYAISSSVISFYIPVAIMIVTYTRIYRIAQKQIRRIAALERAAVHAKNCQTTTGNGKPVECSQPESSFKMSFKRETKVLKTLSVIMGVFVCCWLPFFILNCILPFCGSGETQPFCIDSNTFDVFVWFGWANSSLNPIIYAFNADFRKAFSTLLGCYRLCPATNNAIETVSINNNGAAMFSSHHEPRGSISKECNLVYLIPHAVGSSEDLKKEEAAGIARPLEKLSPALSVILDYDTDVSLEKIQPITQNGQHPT
Sequence of DYRK3 (O43781 whole entry): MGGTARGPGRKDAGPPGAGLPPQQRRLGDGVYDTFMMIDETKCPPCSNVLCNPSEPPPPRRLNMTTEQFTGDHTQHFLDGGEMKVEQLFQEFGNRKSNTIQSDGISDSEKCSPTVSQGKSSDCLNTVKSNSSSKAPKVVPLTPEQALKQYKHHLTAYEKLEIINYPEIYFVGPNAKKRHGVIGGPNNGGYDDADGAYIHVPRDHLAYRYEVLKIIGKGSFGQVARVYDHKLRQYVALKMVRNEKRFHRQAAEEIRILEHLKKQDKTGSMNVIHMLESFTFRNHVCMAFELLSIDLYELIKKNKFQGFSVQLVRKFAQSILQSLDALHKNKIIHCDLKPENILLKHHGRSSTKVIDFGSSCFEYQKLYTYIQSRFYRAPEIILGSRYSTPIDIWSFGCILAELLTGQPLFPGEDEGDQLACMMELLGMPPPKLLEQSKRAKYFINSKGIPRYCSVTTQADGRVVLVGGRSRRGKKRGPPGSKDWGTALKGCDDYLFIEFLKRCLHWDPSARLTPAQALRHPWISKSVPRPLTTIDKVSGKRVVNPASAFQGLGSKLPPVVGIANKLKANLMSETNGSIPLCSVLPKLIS

O=C(O)[C@H]1C2CCC(CC2)[C@@H]1Nc1nc(-c2n[nH]c3ncc(F)cc23)nc(C2CC2)c1F [ZSP1273]
EC50 (CCKa): > 12 µM | Activity at Maximum Concentration (%) (CCKa; 12,000 nM): −4.4% | EC50 [1]: 0.02 ± 0.003 nM | Vd (in vivo [2]; iv, 3 mg/kg): 0.508 ± 0.241 L/kg | clearance (in vivo [2]; iv, 3 mg/kg): 12.9 ± 2.23 mL/min/kg | half-life (in vivo [2]; iv, 3 mg/kg): 127 ± 87.6 min | AUC(0-t) (in vivo [2]; iv, 3 mg/kg): 3950 ± 773 ng·h/mL | bioavailability (in vivo [2]; po, 3 mg/kg): 22.8% | AUC(0-t) (in vivo [2]; po, 3 mg/kg): 899 ± 213 ng·h/mL | Cmax (in vivo [2]; po, 3 mg/kg): 661 ± 304 ng/mL | AUC(0-t) (in vivo [2]; po, 15 mg/kg): 12100 ng·h/mL | Cmax (in vivo [2]; po, 15 mg/kg): 5680 ± 2470 ng/mL | AUC(0-t) (in vivo [2]; po, 75 mg/kg): 77700 ng·h/mL | Cmax (in vivo [2]; po, 75 mg/kg): 17200 ng/mL | EC50 (Influenza virus B/Lee/40): > 0.001 µM | IC50 (H1): > 10 µM | inhibition at 10 µM (H1; [12]): 13.4% | IC50 (TAOK2): > 10 µM | EC50 (Beta2): > 12 µM | Activity at Maximum Concentration (%) (Beta2; 12,000 nM): 1.43% | IC50 (CHK1): > 10 µM | EC50 (op-mu): > 12 µM | Activity at Maximum Concentration (%) (op-mu; 12,000 nM): −3.45% | EC50 (HPIV-3 C243): > 10 µM | IC50 (hERG potassium channel [3]): > 40 µM | animals died (of n = 8) [4]: one | day on which body weight of surviving mice began to recover [4]: 8 days | day on which weight of surviving mice increased gradually [4]: 6th | mice died (of n = 8) [4]: no mice died | survival rate [4]: 100% | EC50 (Beta1): > 12 µM | Activity at Maximum Concentration (%) (Beta1; 12,000 nM): 0.54% | CC50 (in vitro [5]): > 10 µM | IC50 (MINK): > 10 µM | CC50 (in vitro [6]): > 10 µM | IC50 (A/Anhui/01/2013 (H7N9)): 0.000627 ± 0.000312 µM | inhibition at 40 µM (hERG potassium channel [7]): < 50% | IC50 (EPHA2): > 10 µM | IC50 (AD2): > 10 µM | Inhibition at Maximum Concentration (%) (AD2; 10,000 nM): 43.84% | IC50 (SRC): > 10 µM | AUC(0-t) (in vivo [8]; iv, 1 mg/kg): 791 ± 329 ng·h/mL | Vd (in vivo [8]; iv, 1 mg/kg): 0.47 ± 0.0848 L/kg | clearance (in vivo [8]; iv, 1 mg/kg): 25.8 ± 7.6 mL/min/kg | half-life (in vivo [8]; iv, 1 mg/kg): 27.4 ± 10.1 min | AUC(0-t) (in vivo [8]; po, 1 mg/kg): 211 ± 62.4 ng·h/mL | Cmax (in vivo [8]; po, 1 mg/kg): 292 ± 78.2 ng/mL | Tmax (in vivo [8]; po, 1 mg/kg): 27.5 ± 6.12 min | bioavailability (in vivo [8]; po, 1 mg/kg): 26.7% | AUC(0-t) (in vivo [8]; po, 5 mg/kg): 1210 ± 641 ng·h/mL | Cmax (in vivo [8]; po, 5 mg/kg): 1450 ± 800 ng/mL | Tmax (in vivo [8]; po, 5 mg/kg): 32.5 ± 14.8 min | AUC(0-t) (in vivo [8]; po, 15 mg/kg): 5030 ± 1960 ng·h/mL | Cmax (in vivo [8]; po, 15 mg/kg): 5800 ± 2150 ng/mL | Tmax (in vivo [8]; po, 15 mg/kg): 27.5 ± 17.5 min | CC50 (in vitro [9]): > 10 µM | IC50 (CB2): > 10 µM | inhibition at 10 µM (CB2; [12]): 42% | EC50 [10]: 0.063 ± 0.028 nM | IC50 (TNIK): > 10 µM | EC50 (D1): > 12 µM | Activity at Maximum Concentration (%) (D1; 12,000 nM): −2.15% | IC50 (DYRK3): > 10 µM | CC50 (in vitro [11]): > 10 µM | EC50 (H2): > 12 µM | Activity at Maximum Concentration (%) (H2; 12,000 nM): −3.46%
